Legend:
[1] = system: HEp-2; experiment: Concentration required to produce 50% reduction in cloning of H.Ep.No.2 cells by 50%; type: functional, cell-based; settings: Homo sapiens
[2] = system: L1210; experiment: Concentration required to produce 50% reduction in the rate of proliferation of L1210 cells; type: functional, cell-based; settings: Mus musculus

## Nc1nc(F)nc2c1ncn2C1O[C@H](CO)[C@H](O)[C@H]1N (stereo partly specified)
[1]
  IC50: 12 µM
[2]
  IC50: 120 µM

## [N-]=[N+]=N[C@H]1C(n2cnc3c(N)nc(F)nc32)O[C@H](CO)[C@@H]1O (stereo partly specified)
[1]
  IC50: 29 µM
[2]
  IC50: 100 µM

## Nc1nc(Cl)nc2c1ncn2C1O[C@H](CO)[C@H](O)[C@H]1N (stereo partly specified)
[1]
  IC50: 80 µM
[2]
  IC50: > 120 µM

## Nc1nc(Cl)nc2c1ncn2C1O[C@H](CO)[C@H](O)[C@H]1Br (stereo partly specified)
[1]
  IC50: > 110 µM
[2]
  IC50: > 110 µM

## Nc1nc(Cl)nc2c1ncn2C1O[C@H](CO)[C@H](O)[C@H]1Cl (stereo partly specified)
[1]
  IC50: > 120 µM
[2]
  IC50: > 120 µM

## Nc1nc(Cl)nc2c1ncn2C1O[C@H](CO)[C@H](O)[C@H]1I (stereo partly specified)
[1]
  IC50: > 100 µM
[2]
  IC50: > 100 µM

## [N-]=[N+]=N[C@H]1C(n2cnc3c(N)nc(Cl)nc32)O[C@H](CO)[C@@H]1O (stereo partly specified)
[1]
  IC50: > 120 µM
[2]
  IC50: > 120 µM

## Nc1nc(F)nc2c1ncn2C1O[C@H](CO)[C@H](O)[C@H]1Cl (stereo partly specified)
[1]
  IC50: 100 µM
[2]
  IC50: 60 µM

— ChEMBL document CHEMBL1124036 (J Med Chem, 1988)
